pIC50: −log10 of the molar value.
Key:
[1] = tested on: Ramos B-Cell Line Stimulated with IL-4; experiment: Assay for Ramos B-Cell Line Stimulated with IL-4 (CD23 upregulation, FACS; Example 2); format: cell-based; details: human Ramos B cells, IL-4 50 units/mL for 20-24 hours, anti-CD23-PE
Excerpt: One means of assaying for such inhibition is detection of the effect of the 2,4-pyrimidinediamine compounds on the upregulation of downstream gene products. In the Ramos/IL4 assay, B-cells are stimulated with the cytokine Interleukin-4 (IL-4) leading to the activation of the JAK/Stat pathway through phosphorylation of the JAK family kinases, JAK1 and JAK3, which in turn phosphorylate and activate the transcription factor Stat-6. […] To study the effect of inhibitors (e.g., the 2,4-substituted pyrimindinediamine compounds described herein) on the JAK1 and JAK3 kinases, human Ramos B cells are stimulated with human IL-4. 20 to 24 hours post stimulation, cells are stained for upregulation of CD23 and analyzed using flow cytometry (FACS). […] An exemplary assay of this type is described in greater detail in Example 2.
B-cells stimulated with cytokine Interleukin-4 (IL-4) activate the JAK/Stat pathway through phosphorylation of the JAK family kinases, JAK-1 and JAK-3, which in turn phosphorylate and activate the transcription factor Stat-6. […] To study the effect of inhibitors on the JAK family kinases, human Ramos B cells are stimulated with human IL-4.
The Ramos B-cell line was acquired from ATCC (ATCC Catalog No. CRL-1596). The cells were cultured in RPMI 1640 (Cellgro, MediaTech, Inc., Herndon, Va., Cat No. 10-040-CM) with 10% fetal bovine serum (FBS), heat inactivated (JRH Biosciences, Inc, Lenexa, Kans., Cat No. 12106-500M) according to ATCC propagation protocol. Cells were maintained at a density of 3.5×10^5. The day before the experiment, Ramos B-cells were diluted to 3.5×10^5 cells/mL to ensure that they were in a logarithmic growth phase.
Cells were spun down and suspended in RPMI with 5% serum. 5×10^4 cells were used per point in a 96-well tissue culture plate. Cells were pre-incubated with compound or DMSO (Sigma-Aldrich, St. Louis, Mo., Cat No. D2650) vehicle control for 1 hour in a 37° C. incubator.
Cells were then stimulated with IL-4 (Peprotech Inc., Rocky Hill, N.J., Cat No. 200-04) for a final concentration of 50 units/mL for 20-24 hours. Cells were then spun down and stained with anti-CD23-PE (BD Pharmingen, San Diego, Calif., Cat No. 555711) and analyzed by FACS. Detection was performed using a BD LSR I System Flow Cytometer, purchased from Becton Dickinson Biosciences of San Jose, Calif.

BaF3 V617F cells; UKE-1 = experiment: Proliferation Assay (Cell Titer-Glo; Example 7); format: cell-based; details: proliferation 72 hours, inhibit JAK2 activity, cell line (BaF3 V617F or UKE-1) not stated
Outline: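 Proliferation IC50s reflect 72 h compound exposure at 37 °C, read by Cell Titer-Glo luminescence. Compound was serially diluted 3-fold from a 5 mM DMSO stock and added as a 2× solution; BaF3 V617F cells were grown in RPMI/10% FBS, UKE-1 in Iscove's DMEM with FBS, equine serum and hydrocortisone.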

| SMILES | pIC50 [1] | pIC50 (BaF3 V617F cells; UKE-1) |
| --- | --- | --- |
| CCN1CCN(c2ccc(Nc3ncc(C)c(Nc4cccc(CNS(=O)(=O)C5CC5)c4)n3)cc2C)CC1 [II-12, N4-(3-cyclopropylsulfonylaminomethyl)phenyl-N2-[4-(4-ethylpiperazino)-3-methyl]phenyl-5-methyl-2,4-pyrimidinediamine] | 6.99 | 6.89 |
| Cc1cc(C)cc(Nc2ncc(C)c(Nc3ccc(CNS(=O)(=O)C4CC4)c(Cl)c3)n2)c1 [II-38, N4-(3-chloro-4-cyclopropylsulfonylaminomethyl)phenyl-N2-(3,5-dimethyl)phenyl-5-methyl-2,4-pyrimidinediamine] | 6.48 | 5.81 |
| Cc1cc(C)cc(Nc2ncc(C)c(Nc3cccc(CNS(=O)(=O)C4CC4)c3)n2)c1 [II-11, N4-(3-cyclopropylsulfonylaminomethyl)phenyl-N2-(3,5-dimethyl)phenyl-5-methyl-2,4-pyrimidinediamine] | 6.60 | 5.55 |
| Cc1cnc(Nc2cccc(C#N)c2)nc1Nc1ccc(CNS(=O)(=O)C2CC2)cc1 [II-34, N2-(3-cyano)phenyl-N4-(4-cyclopropylsulfonylaminomethyl)phenyl-5-methyl-2,4-pyrimidinediamine] | 7.34 | 6.34 |
| COc1ccc(Nc2ncc(C)c(Nc3cccc(CNS(=O)(=O)C4CC4)c3)n2)cc1Cl [II-14, N2-(3-chloro-4-methoxy)phenyl-N4-(3-cyclopropylsulfonylaminomethyl)phenyl-5-methyl-2,4-pyrimidinediamine] | 6.82 | 5.66 |
| N#Cc1cccc(Nc2ncc(F)c(Nc3ccc(CNS(=O)(=O)C4CC4)cc3)n2)c1 [II-30, N2-(3-cyano)phenyl-N4-(4-cyclopropylsulfonylaminomethyl)phenyl-5-fluoro-2,4-pyrimidinediamine] | 7.02 | 5.95 |
| COc1ccc(Nc2ncc(Cl)c(Nc3ccc(CNS(=O)(=O)C4CC4)cc3)n2)cc1Cl [II-35, 5-chloro-N2-(3-chloro-4-methoxy)phenyl-N4-(4-cyclopropylsulfonylaminomethyl)phenyl-2,4-pyrimidinediamine] | 7.31 | 6.04 |
| Cc1cnc(Nc2ccc(C(N)=O)cc2)nc1Nc1cccc(CN(C)S(=O)(=O)C2CC2)c1 [II-21, N2-(4-aminocarbonyl)phenyl-N4-[3-(N-cyclopropylsulfonyl-N-methyl)aminomethyl]phenyl-5-methyl-2,4-pyrimidinediamine] | 6.96 | 6.32 |

Second part, the compound after the results:

| pIC50 [1] | pIC50 (BaF3 V617F cells; UKE-1) | SMILES |
| --- | --- | --- |
| 6.94 | 6.10 | Cc1cnc(Nc2ccc3c(c2)nc(C)n3C)nc1Nc1ccc(CNS(=O)(=O)C2CC2)cc1 [IV-7, N4-(4-cyclopropylsulfonylaminomethyl)phenyl-N2-(1,2-dimethylbenzoimidazol-5-yl)-5-methyl-2,4-pyrimidinediamine] |
| 6.75 | 5.20 | Cc1nc2cc(Nc3ncc(F)c(Nc4ccc(CNS(=O)(=O)C5CC5)cc4)n3)ccc2[nH]1 [III-5, N4-(4-cyclopropylsulfonylaminomethyl)phenyl-5-fluoro-N2-(2-methylbenzoimidazol-5-yl)-2,4-pyrimidinediamine] |
| 6.49 | 5.69 | Cc1cc(C)cc(Nc2ncc(C)c(Nc3ccc(CN(C)S(=O)(=O)C4CC4)cc3)n2)c1 [II-39, N4-[4-(N-cyclopropylsulfonyl-N-methyl)aminomethyl]phenyl-N2-(3,5-dimethyl)phenyl-5-methyl-2,4-pyrimidinediamine] |
| 6.04 | 5.21 | O=C(NCCN1CCOCC1)n1ccc2ccc(Nc3ncc(F)c(Nc4ccc(CNS(=O)(=O)C5CC5)cc4)n3)cc21 [III-2, N4-[4-(Cyclopropylsulfonylaminomethyl)phenyl]-5-fluoro-N2-[1-(2-(N-morpholino)ethylaminocarbonyl)indol-6-yl]-2,4-pyrimidinediamine] |
| 7.41 | 7.62 | COc1c(C)cc(Nc2ncc(Cl)c(Nc3ccc(CNS(=O)(=O)C4CC4)cc3)n2)cc1C [II-43, 5-chloro-N4-(4-cyclopropylsulfonylaminomethyl)phenyl-N2-(3,5-dimethyl-4-methoxy)phenyl-2,4-pyrimidinediamine] |
